Data as given in PubChem BioAssay (NCI).
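Values below derive from 48-hour exposures of cells grown in 96-well plates, with endpoints linearly interpolated between the two concentrations bracketing the appropriate inhibition level. The concentration for full growth arrest is given as TGI.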

Assays:
Assay in all cases: NCI anticancer screen, dose series, 48 h
786-0 renal = test system: 786-0 renal
A498 renal = test system: A498 renal
A549 NSCLC = test system: A549 NSCLC
ACHN renal = test system: ACHN renal
BT-549 breast = test system: BT-549 breast
CAKI-1 renal = test system: CAKI-1 renal
CCRF-CEM leukemia = test system: CCRF-CEM leukemia
COLO 205 colon = test system: COLO 205 colon
EKVX NSCLC = test system: EKVX NSCLC
HCC-2998 colon = test system: HCC-2998 colon
HCT-116 colon = test system: HCT-116 colon
HCT-15 colon = test system: HCT-15 colon
HOP-62 NSCLC = test system: HOP-62 NSCLC
HOP-92 NSCLC = test system: HOP-92 NSCLC
HS 578T breast = test system: HS 578T breast
HT29 colon = test system: HT29 colon
IGROV1 ovarian = test system: IGROV1 ovarian
K-562 leukemia = test system: K-562 leukemia
KM12 colon = test system: KM12 colon
LOX IMVI melanoma = test system: LOX IMVI melanoma
M14 melanoma = test system: M14 melanoma
MALME-3M melanoma = test system: MALME-3M melanoma
MCF7 breast = test system: MCF7 breast
MDA-MB-231 breast = test system: MDA-MB-231 breast
MDA-MB-435 = test system: MDA-MB-435
MDA-N = test system: MDA-N
MOLT-4 leukemia = test system: MOLT-4 leukemia
NCI-H226 lung = test system: NCI-H226 lung
NCI-H460 lung = test system: NCI-H460 lung
NCI-H522 lung = test system: NCI-H522 lung
NCI/ADR-RES ovarian = test system: NCI/ADR-RES ovarian
OVCAR-4 ovarian = test system: OVCAR-4 ovarian
OVCAR-5 ovarian = test system: OVCAR-5 ovarian
OVCAR-8 ovarian = test system: OVCAR-8 ovarian
PC-3 prostate = test system: PC-3 prostate
RXF 393 renal = test system: RXF 393 renal
SF-268 CNS = test system: SF-268 CNS
SF-295 CNS = test system: SF-295 CNS
SF-539 CNS = test system: SF-539 CNS
SK-MEL-2 melanoma = test system: SK-MEL-2 melanoma
SK-MEL-28 melanoma = test system: SK-MEL-28 melanoma
SK-MEL-5 melanoma = test system: SK-MEL-5 melanoma
SK-OV-3 ovarian = test system: SK-OV-3 ovarian
SN12C renal = test system: SN12C renal
SNB-19 CNS = test system: SNB-19 CNS
SNB-75 CNS = test system: SNB-75 CNS
SW-620 colon = test system: SW-620 colon
TK-10 renal = test system: TK-10 renal
U251 CNS = test system: U251 CNS
UACC-257 melanoma = test system: UACC-257 melanoma
UACC-62 melanoma = test system: UACC-62 melanoma
DU-145 prostate = test system: DU-145 prostate
HL-60(TB) leukemia = test system: HL-60(TB) leukemia
NCI-H23 lung = test system: NCI-H23 lung
OVCAR-3 ovarian = test system: OVCAR-3 ovarian
RPMI-8226 leukemia = test system: RPMI-8226 leukemia
UO-31 renal = test system: UO-31 renal
SR leukemia = test system: SR leukemia

In the case of `COc1cccc(NC(=O)c2c(SC)c(C#N)c(=O)n(N)c2N)c1`, the TGI (786-0 renal) is reported as > 100 µM, the TGI (A498 renal) is reported as > 100 µM and the TGI (A549 NSCLC) is reported as > 100 µM. The TGI (ACHN renal) was > 100 µM, the TGI (BT-549 breast) was > 100 µM and the TGI (CAKI-1 renal) was > 100 µM. The TGI (CCRF-CEM leukemia) was > 100 µM, the TGI (COLO 205 colon) was > 100 µM and the TGI (EKVX NSCLC) was > 100 µM. For the same compound, the TGI (HCC-2998 colon) was > 100 µM, the TGI (HCT-116 colon) was > 100 µM and the TGI (HCT-15 colon) was > 100 µM. The TGI (HOP-62 NSCLC) was > 100 µM, the TGI (HOP-92 NSCLC) was > 100 µM and the TGI (HS 578T breast) was > 100 µM. The TGI (HT29 colon) was > 100 µM, the TGI (IGROV1 ovarian) was > 100 µM and the TGI (K-562 leukemia) was > 100 µM. For the same compound, the TGI (KM12 colon) was > 100 µM, the TGI (LOX IMVI melanoma) was > 100 µM and the TGI (M14 melanoma) was > 100 µM. The TGI (MALME-3M melanoma) was > 100 µM, the TGI (MCF7 breast) was > 100 µM and the TGI (MDA-MB-231 breast) was > 100 µM. For the same compound, the TGI (MDA-MB-435) was > 100 µM, the TGI (MDA-N) was > 100 µM and the TGI (MOLT-4 leukemia) was > 100 µM. For the same compound, the TGI (NCI-H226 lung) was > 100 µM, the TGI (NCI-H460 lung) was > 100 µM and the TGI (NCI-H522 lung) was > 100 µM. The TGI (NCI/ADR-RES ovarian) was > 100 µM, the TGI (OVCAR-4 ovarian) was > 100 µM and the TGI (OVCAR-5 ovarian) was > 100 µM. The TGI (OVCAR-8 ovarian) was > 100 µM, the TGI (PC-3 prostate) was > 100 µM and the TGI (RXF 393 renal) was > 100 µM. For the same compound, the TGI (SF-268 CNS) was > 100 µM, the TGI (SF-295 CNS) was > 100 µM and the TGI (SF-539 CNS) was > 100 µM. For the same compound, the TGI (SK-MEL-2 melanoma) was > 100 µM, the TGI (SK-MEL-28 melanoma) was > 100 µM and the TGI (SK-MEL-5 melanoma) was > 100 µM. For the same compound, the TGI (SK-OV-3 ovarian) was > 100 µM, the TGI (SN12C renal) was > 100 µM and the TGI (SNB-19 CNS) was 98.6 µM. For the same compound, the TGI (SNB-75 CNS) was 81.3 µM, the TGI (SW-620 colon) was > 100 µM and the TGI (TK-10 renal) was > 100 µM. For the same compound, the TGI (U251 CNS) was > 100 µM, the TGI (UACC-257 melanoma) was > 100 µM and the TGI (UACC-62 melanoma) was > 100 µM.
In the case of `COc1ccc(COC(=O)NNC(=O)C2CSC(c3ccccc3)N2C(C)=O)cc1` (centres undefined), the TGI (786-0 renal) is reported as > 100 µM, the TGI (A498 renal) is reported as > 100 µM and the TGI (A549 NSCLC) is reported as > 100 µM. For the same compound, the TGI (ACHN renal) was > 100 µM, the TGI (BT-549 breast) was > 100 µM and the TGI (CAKI-1 renal) was > 100 µM. For the same compound, the TGI (CCRF-CEM leukemia) was > 100 µM, the TGI (DU-145 prostate) was > 100 µM and the TGI (EKVX NSCLC) was > 100 µM. The TGI (HCC-2998 colon) was > 100 µM, the TGI (HCT-116 colon) was > 100 µM and the TGI (HCT-15 colon) was > 100 µM. The TGI (HL-60(TB) leukemia) was > 100 µM, the TGI (HOP-62 NSCLC) was > 100 µM and the TGI (HOP-92 NSCLC) was > 100 µM. The TGI (HS 578T breast) was > 100 µM, the TGI (HT29 colon) was > 100 µM and the TGI (IGROV1 ovarian) was > 100 µM. The TGI (K-562 leukemia) was > 100 µM, the TGI (KM12 colon) was > 100 µM and the TGI (LOX IMVI melanoma) was > 100 µM. The TGI (M14 melanoma) was > 100 µM, the TGI (MALME-3M melanoma) was > 100 µM and the TGI (MCF7 breast) was > 100 µM. The TGI (MDA-MB-435) was > 100 µM, the TGI (MDA-N) was > 100 µM and the TGI (MOLT-4 leukemia) was > 100 µM. The TGI (NCI-H226 lung) was > 100 µM, the TGI (NCI-H23 lung) was > 100 µM and the TGI (NCI-H460 lung) was > 100 µM. The TGI (NCI-H522 lung) was > 100 µM, the TGI (NCI/ADR-RES ovarian) was > 100 µM and the TGI (OVCAR-3 ovarian) was > 100 µM. For the same compound, the TGI (OVCAR-4 ovarian) was > 100 µM, the TGI (OVCAR-5 ovarian) was > 100 µM and the TGI (OVCAR-8 ovarian) was > 100 µM. For the same compound, the TGI (PC-3 prostate) was > 100 µM, the TGI (RPMI-8226 leukemia) was > 100 µM and the TGI (SF-268 CNS) was > 100 µM. For the same compound, the TGI (SF-295 CNS) was > 100 µM, the TGI (SF-539 CNS) was > 100 µM and the TGI (SK-MEL-2 melanoma) was > 100 µM. For the same compound, the TGI (SK-MEL-5 melanoma) was > 100 µM, the TGI (SK-OV-3 ovarian) was > 100 µM and the TGI (SN12C renal) was > 100 µM. The TGI (SNB-19 CNS) was > 100 µM, the TGI (SNB-75 CNS) was > 100 µM and the TGI (SW-620 colon) was > 100 µM. For the same compound, the TGI (TK-10 renal) was > 100 µM, the TGI (U251 CNS) was > 100 µM and the TGI (UACC-257 melanoma) was > 100 µM. For the same compound, the TGI (UACC-62 melanoma) was > 100 µM and the TGI (UO-31 renal) was > 100 µM.
For `Cc1ccc(-n2c(C)n[nH]c2=O)cc1`, the TGI (786-0 renal) was > 100 µM, the TGI (A549 NSCLC) was > 100 µM and the TGI (ACHN renal) was > 100 µM. For the same compound, the TGI (BT-549 breast) was > 100 µM, the TGI (CCRF-CEM leukemia) was > 100 µM and the TGI (COLO 205 colon) was > 100 µM. The TGI (DU-145 prostate) was > 100 µM, the TGI (EKVX NSCLC) was > 100 µM and the TGI (HCC-2998 colon) was > 100 µM. The TGI (HCT-116 colon) was > 100 µM, the TGI (HCT-15 colon) was > 100 µM and the TGI (HOP-62 NSCLC) was > 100 µM. For the same compound, the TGI (HOP-92 NSCLC) was > 100 µM, the TGI (HT29 colon) was > 100 µM and the TGI (IGROV1 ovarian) was > 100 µM. For the same compound, the TGI (K-562 leukemia) was > 100 µM, the TGI (KM12 colon) was > 100 µM and the TGI (LOX IMVI melanoma) was > 100 µM. The TGI (M14 melanoma) was > 100 µM, the TGI (MCF7 breast) was > 100 µM and the TGI (MDA-MB-231 breast) was > 100 µM. The TGI (MDA-MB-435) was > 100 µM, the TGI (MDA-N) was > 100 µM and the TGI (MOLT-4 leukemia) was > 100 µM. The TGI (NCI-H23 lung) was > 100 µM, the TGI (NCI-H522 lung) was > 100 µM and the TGI (NCI/ADR-RES ovarian) was > 100 µM. For the same compound, the TGI (OVCAR-3 ovarian) was > 100 µM, the TGI (OVCAR-5 ovarian) was > 100 µM and the TGI (OVCAR-8 ovarian) was > 100 µM. The TGI (PC-3 prostate) was > 100 µM, the TGI (RPMI-8226 leukemia) was > 100 µM and the TGI (RXF 393 renal) was > 100 µM. For the same compound, the TGI (SF-268 CNS) was > 100 µM, the TGI (SF-295 CNS) was > 100 µM and the TGI (SF-539 CNS) was > 100 µM. For the same compound, the TGI (SK-MEL-2 melanoma) was > 100 µM, the TGI (SK-MEL-28 melanoma) was > 100 µM and the TGI (SK-MEL-5 melanoma) was > 100 µM. For the same compound, the TGI (SK-OV-3 ovarian) was > 100 µM, the TGI (SN12C renal) was > 100 µM and the TGI (SNB-19 CNS) was > 100 µM. For the same compound, the TGI (SNB-75 CNS) was > 100 µM, the TGI (SR leukemia) was > 100 µM and the TGI (SW-620 colon) was > 100 µM. For the same compound, the TGI (TK-10 renal) was > 100 µM, the TGI (U251 CNS) was > 100 µM and the TGI (UACC-257 melanoma) was > 100 µM. The TGI (UACC-62 melanoma) was > 100 µM and the TGI (UO-31 renal) was > 100 µM.
